This test deals with mice. Put plainly: tail-flick test, analgesic effect (nociceptive response) after intravenous injection. Format: in vivo. As to conditions: i.v. dalargin 7.5 mg/kg, comparison data originate from an earlier experiment. As for the experimental part: The preparation was applied to mice […] at a dosage of 7.5 mg/kg of dalargin. This corresponds to an application amount of 200 μl of the aforementioned preparation per mouse, based on an average body weight of a mouse of 20 g.
The analgesic effect (nociceptive response) was determined by the tail-flick test, in which a hot beam of light is projected onto the tail of the mouse and the time until the mouse draws away its tail is measured. After 10 seconds (=100% MPE) the experiment was truncated so as not to cause injury to the mouse. The maximally possible analgesic effect (MPE) was determined in accordance with the following formula: [formula]
Negative MPE values result if after administration of the administration the mouse draws away its tail before the treatment.
With the aid of dalargin-loaded avidin-modified HSA nanoparticles the analgesic effects indicated in Table 1 were obtained after intravenous injection.

As for dalargin [Dalargin solution], the “Analgesic effect [% MPE]” value amounted to 10.0 ± 9.8 % MPE (30 min), 9.3 ± 2.8 % MPE (45 min), 4.7 ± 5.1 % MPE (90 min) and 2.0 ± 6.1 % MPE (120 min).
